Test results taken from patent US7569726B2, “Indanone derivatives that inhibit prolyl hydroxylase” (Amgen Inc., priority 2007, dated 2009).

Target: HIF PHD2 (Homo sapiens, UniProt Q9GZT9)
Assay: PHD2 inhibition assay (TR-FRET, VCB-Eu detection of hydroxylated P564-HIF1α peptide)
Type: biochemical
Details: 2 nM PHD2, 100 nM P564-HIF1α peptide, 0.25 μM 2-oxoglutarate, 100 μM FeCl2, pH 6, TR-FRET
Method: Inhibition of HIF PHD2 activity was quantified utilizing the TR-FRET technology. HIF PHD2 catalyzes a hydroxyl modification on the proline residue of the P564-HIF1α peptide substrate (Biotin-DLEMLAPYIPMDDDFQL (SEQ ID NO: 7)) resulting in recognition and binding of the europylated Von Hippel-Lindau protein (pVHL), elongin B and elongin C heterotrimeric (VCB-Eu) complex.
The PHD2 inhibition assay was executed by addition of freshly dissolved FeCl2 to 178.57 μM (100 μM final concentration) in PHD2 Reaction Buffer containing 30 mM MES, pH 6, 10 mM NaCl, 0.25% Brij-35, 0.01% BSA, and 1% DMSO. 28 μL of the iron solution and 2 μL of inhibitor compounds serially diluted in 100% DMSO (5% DMSO final) were added to black polypropylene 96-well microtiter plates. To that, 10 μL of 10 nM PHD2 (2 nM final) was added to all wells of the plate except for the 8 wells of column 12 (LO control), and allowed to incubate at room temperature on the shaker for one hour. Column 6 was the HI control containing PHD2 enzyme and 5% DMSO vehicle, but no inhibitor compound. To initiate the PHD2 enzymatic reaction, 10 μL of a solution containing 500 nM P564-HIF1α peptide (100 nM final), 10 mM ascorbic acid (2 mM final), and 1.25 μM 2-oxoglutarate (α-ketoglutarate; 0.25 μM final) in PHD2 Reaction Buffer was added to all wells of the plate and allowed to incubate on the shaker at room temperature for one hour.
The reaction was terminated by addition of 25 μL TR-FRET Buffer (50 mM TRIS-HCl, pH 9, 100 mM NaCl, 0.05% BSA, and 0.5% Tween-20) containing 150 mM succinate (product inhibitor; 50 mM final), 75 nM streptavidin-APC (25 nM final), and 7.5 nM VCB-Eu (2.5 nM final). The TR-FRET detection reagents were placed on a shaker for 1 hour to reach binding equilibrium before reading on the Discovery platform (PerkinElmer). Europium is excited at 315 nm and phosphoresces at 615 nm with a large Stoke's shift. APC, in turn, emits at 655 nm upon excitation at 615 nm. The TR-FRET signal is measured as the ratio of the APC 655 nm signal divided by the internal europium reference 615 nm emission signal.
The POC (percentage of control) was determined by comparing the signal from hydroxylated peptide substrate in the enzyme reaction containing inhibitor compound with that from PHD2 enzyme with DMSO vehicle alone (HI control), and no enzyme (LO control). POC was calculated using the formula: % control (POC)=(cpd−average LO)/(average HI−average LO)*100. Data (consisting of POC and inhibitor concentration in μM) was fitted to a 4-parameter equation (y=A+((B−A)/(1+((x/C)^D))), where A is the minimum y (POC) value, B is the maximum y (POC), C is the x (cpd concentration) at the point of inflection and D is the slope factor) using a Levenburg-Marquardt non-linear regression algorithm.

Sequence of HIF PHD2 (Q9GZT9 whole entry): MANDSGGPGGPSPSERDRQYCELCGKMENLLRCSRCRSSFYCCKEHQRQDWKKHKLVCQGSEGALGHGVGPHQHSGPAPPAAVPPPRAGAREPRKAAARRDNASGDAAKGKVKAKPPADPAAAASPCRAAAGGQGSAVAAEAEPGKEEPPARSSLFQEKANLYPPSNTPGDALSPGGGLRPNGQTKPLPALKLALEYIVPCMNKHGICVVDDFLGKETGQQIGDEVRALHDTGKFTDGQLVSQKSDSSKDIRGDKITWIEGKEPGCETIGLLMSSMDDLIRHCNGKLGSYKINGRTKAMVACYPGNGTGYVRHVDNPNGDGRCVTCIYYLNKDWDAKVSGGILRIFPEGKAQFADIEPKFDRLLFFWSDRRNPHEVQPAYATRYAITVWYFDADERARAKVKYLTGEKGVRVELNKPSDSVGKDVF

IC50 [nM]	SMILES
9.5	O=C(O)CNC(=O)C1=C(O)c2c(Cl)cccc2C1=O [Example 4, 2-(4-chloro-3-hydroxy-1-oxo-1H-indene-2-carboxamido)acetic acid]
13	O=C(O)CNC(=O)C1=C(O)c2cc(C(F)(F)F)ccc2C1=O [Example 3, 2-(3-hydroxy-1-oxo-5-(trifluoromethyl)-1H-indene-2-carboxamido)acetic acid]
20.6	O=C(O)CNC(=O)C1=C(O)c2cc(Br)ccc2C1=O [Example 2, 2-(5-bromo-3-hydroxy-1-oxo-1H-indene-2-carboxamido)acetic acid]
22.5	O=C(O)CNC(=O)C1=C(O)c2c(I)cccc2C1=O [Example 1, 2-(3-hydroxy-4-iodo-1-oxo-1H-indene-2-carboxamido)acetic acid]
50.1	O=C(O)CNC(=O)C1=C(O)c2cc(F)ccc2C1=O [Example 6, 2-(6-fluoro-3-hydroxy-1-oxo-1H-indene-2-carboxamido)acetic acid]
3.6	O=C(O)CNC(=O)C1=C(O)c2ccc(-c3ccccc3Cl)cc2C1=O [Example 18, 2-(6-(2-chlorophenyl)-3-hydroxy-1-oxo-1H-indene-2-carboxamido)acetic acid]
22	COc1ccc(-c2ccc3c(c2)C(O)=C(C(=O)NCC(=O)O)C3=O)cc1 [Example 12, 2-(3-hydroxy-5-(4-methoxyphenyl)-1-oxo-1H-indene-2-carboxamido)acetic acid]
25.5	O=C(O)CNC(=O)C1=C(O)c2c(F)cccc2C1=O [Example 7]
11.6	O=C(O)CNC(=O)C1=C(O)c2ccc(-c3ccccc3)cc2C1=O [Example 10, 2-(3-hydroxy-1-oxo-6-phenyl-1H-indene-2-carboxamido)acetic acid]

Second part, the compound before the results:

SMILES	IC50 [nM]
COc1cccc(-c2cccc3c2C(=O)C(C(=O)NCC(=O)O)=C3O)c1 [Example 17, 2-(3-hydroxy-7-(3-methoxyphenyl)-1-oxo-1H-indene-2-carboxamido)acetic acid]	3
COc1cccc(-c2ccc3c(c2)C(=O)C(C(=O)NCC(=O)O)=C3O)c1 [Example 19, 2-(3-hydroxy-6-(3-methoxyphenyl)-1-oxo-1H-indene-2-carboxamido)acetic acid]	5.5
O=C(O)CNC(=O)C1=C(O)c2c(cccc2-c2cccc(Cl)c2)C1=O [Example 14, 2-(4-(3-chlorophenyl)-3-hydroxy-1-oxo-1H-indene-2-carboxamido)acetic acid]	3
COc1ccc(-c2cccc3c2C(O)=C(C(=O)NCC(=O)O)C3=O)cc1 [Example 11, 2-(3-hydroxy-4-(4-methoxyphenyl)-1-oxo-1H-indene-2-carboxamido)acetic acid]	3.6
O=C(O)CNC(=O)C1=C(O)c2c(Cl)ccc(Cl)c2C1=O [Example 8, 2-(4,7-dichloro-3-hydroxy-1-oxo-1H-indene-2-carboxamido)acetic acid]	47.2
COc1ccccc1-c1cccc2c1C(=O)C(C(=O)NCC(=O)O)=C2O [Example 16, 2-(3-hydroxy-7-(2-methoxyphenyl)-1-oxo-1H-indene-2-carboxamido)acetic acid]	22.1
O=C(O)CNC(=O)C1=C(O)c2c(cccc2-c2ccccc2)C1=O [Example 9, 2-(3-hydroxy-1-oxo-7-phenyl-1H-indene-2-carboxamido)acetic acid]	2.8
O=C(O)CNC(=O)C1=C(O)c2c(cccc2-c2ccc(Cl)cc2)C1=O [Example 13, 2-(4-(4-chlorophenyl)-3-hydroxy-1-oxo-1H-indene-2-carboxamido)acetic acid]	3.8
O=C(O)CNC(=O)C1=C(O)c2c(cccc2-c2ccccc2Cl)C1=O [Example 15, 2-(4-(2-chlorophenyl)-3-hydroxy-1-oxo-1H-indene-2-carboxamido)acetic acid]	8.5
